*1 amine or outer side, *2 acyl side, *3 side chain or, on linkers, in order; H or OH if unused. Where a SMILES comes first, the peptide text is derived from it. The star is where a group is joined. X1 = O=C(CCCC[C@@H]1SC[C@@H]2NC(=O)N[C@@H]21)NCCCOCCOCCOCCCN*; Suc = O=C(CCC(=O)[*:2])[*:1]
Experiments:
INADL-6 = INADL-6 (Homo sapiens, UniProt Q8NI35); test: Holdup assay, INADL-6; type: binding
GIPC1-1 = test: Holdup assay, GIPC1-1; type: binding, human
GORASP1-1 = GORASP1-1 (Homo sapiens, UniProt Q9BQQ3); test: Holdup assay, GORASP1-1; type: binding
FRMPD1-1 = test: Holdup assay, FRMPD1-1; type: binding, human
APBA2-2 = test: Holdup assay, APBA2-2; type: binding, human
MAGI2-5 = MAGI2-5 (Homo sapiens, UniProt Q86UL8); test: Holdup assay, MAGI2-5; type: binding
DLG3-3 = test: Holdup assay, DLG3-3; type: binding, human
FRMPD2-2 = target: T1, FRMPD2-2 (Homo sapiens, UniProt Q68DX3); test: Holdup assay, FRMPD2-2; type: binding
T1 sequence (Q68DX3 1-1309): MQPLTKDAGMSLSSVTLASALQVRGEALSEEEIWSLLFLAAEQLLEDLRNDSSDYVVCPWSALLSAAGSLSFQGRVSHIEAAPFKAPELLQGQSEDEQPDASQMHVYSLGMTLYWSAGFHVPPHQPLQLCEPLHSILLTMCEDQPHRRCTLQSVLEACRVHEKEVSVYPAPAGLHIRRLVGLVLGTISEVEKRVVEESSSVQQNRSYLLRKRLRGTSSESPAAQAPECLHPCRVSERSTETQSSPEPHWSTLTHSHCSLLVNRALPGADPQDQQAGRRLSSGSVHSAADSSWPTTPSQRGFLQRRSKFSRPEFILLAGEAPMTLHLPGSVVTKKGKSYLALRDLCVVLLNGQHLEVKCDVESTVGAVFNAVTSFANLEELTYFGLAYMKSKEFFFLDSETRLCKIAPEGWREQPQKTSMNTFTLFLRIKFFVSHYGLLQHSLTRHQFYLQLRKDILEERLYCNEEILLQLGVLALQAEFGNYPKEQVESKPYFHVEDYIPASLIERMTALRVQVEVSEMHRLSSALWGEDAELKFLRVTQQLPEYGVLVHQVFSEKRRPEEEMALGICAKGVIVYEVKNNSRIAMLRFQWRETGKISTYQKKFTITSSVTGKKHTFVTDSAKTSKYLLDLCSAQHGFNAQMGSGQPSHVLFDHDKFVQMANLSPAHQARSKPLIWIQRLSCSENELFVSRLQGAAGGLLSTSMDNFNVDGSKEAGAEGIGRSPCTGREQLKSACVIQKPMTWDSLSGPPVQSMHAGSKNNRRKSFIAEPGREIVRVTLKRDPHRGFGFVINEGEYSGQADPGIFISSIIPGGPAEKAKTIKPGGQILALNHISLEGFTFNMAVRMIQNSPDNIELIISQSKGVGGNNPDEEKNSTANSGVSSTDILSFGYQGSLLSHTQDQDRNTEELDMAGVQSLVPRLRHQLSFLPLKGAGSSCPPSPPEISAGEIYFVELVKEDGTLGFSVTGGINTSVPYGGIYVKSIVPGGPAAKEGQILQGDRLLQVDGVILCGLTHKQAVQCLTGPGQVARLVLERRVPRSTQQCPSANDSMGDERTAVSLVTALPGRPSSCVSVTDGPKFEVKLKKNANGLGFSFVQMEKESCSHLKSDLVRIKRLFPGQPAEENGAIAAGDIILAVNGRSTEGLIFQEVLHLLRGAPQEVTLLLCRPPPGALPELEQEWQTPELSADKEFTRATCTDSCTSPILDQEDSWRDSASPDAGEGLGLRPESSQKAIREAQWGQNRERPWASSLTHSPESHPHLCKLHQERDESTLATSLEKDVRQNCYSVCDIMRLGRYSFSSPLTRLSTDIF

MAGI3-3 = test: Holdup assay, MAGI3-3; type: binding, human

Chain of GORASP1-1 (Q9BQQ3 2-440): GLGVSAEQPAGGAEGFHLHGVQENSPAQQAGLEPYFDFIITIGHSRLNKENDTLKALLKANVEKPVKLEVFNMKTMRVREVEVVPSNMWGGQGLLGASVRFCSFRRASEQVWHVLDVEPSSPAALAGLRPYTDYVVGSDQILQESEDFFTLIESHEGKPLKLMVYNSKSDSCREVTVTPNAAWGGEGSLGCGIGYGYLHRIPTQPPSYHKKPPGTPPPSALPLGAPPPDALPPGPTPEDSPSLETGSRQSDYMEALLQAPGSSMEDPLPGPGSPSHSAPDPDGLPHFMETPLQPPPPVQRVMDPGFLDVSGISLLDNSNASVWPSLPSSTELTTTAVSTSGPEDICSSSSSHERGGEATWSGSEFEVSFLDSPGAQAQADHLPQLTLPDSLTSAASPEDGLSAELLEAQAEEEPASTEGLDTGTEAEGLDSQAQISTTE
Chain of INADL-6 (Q8NI35 whole entry): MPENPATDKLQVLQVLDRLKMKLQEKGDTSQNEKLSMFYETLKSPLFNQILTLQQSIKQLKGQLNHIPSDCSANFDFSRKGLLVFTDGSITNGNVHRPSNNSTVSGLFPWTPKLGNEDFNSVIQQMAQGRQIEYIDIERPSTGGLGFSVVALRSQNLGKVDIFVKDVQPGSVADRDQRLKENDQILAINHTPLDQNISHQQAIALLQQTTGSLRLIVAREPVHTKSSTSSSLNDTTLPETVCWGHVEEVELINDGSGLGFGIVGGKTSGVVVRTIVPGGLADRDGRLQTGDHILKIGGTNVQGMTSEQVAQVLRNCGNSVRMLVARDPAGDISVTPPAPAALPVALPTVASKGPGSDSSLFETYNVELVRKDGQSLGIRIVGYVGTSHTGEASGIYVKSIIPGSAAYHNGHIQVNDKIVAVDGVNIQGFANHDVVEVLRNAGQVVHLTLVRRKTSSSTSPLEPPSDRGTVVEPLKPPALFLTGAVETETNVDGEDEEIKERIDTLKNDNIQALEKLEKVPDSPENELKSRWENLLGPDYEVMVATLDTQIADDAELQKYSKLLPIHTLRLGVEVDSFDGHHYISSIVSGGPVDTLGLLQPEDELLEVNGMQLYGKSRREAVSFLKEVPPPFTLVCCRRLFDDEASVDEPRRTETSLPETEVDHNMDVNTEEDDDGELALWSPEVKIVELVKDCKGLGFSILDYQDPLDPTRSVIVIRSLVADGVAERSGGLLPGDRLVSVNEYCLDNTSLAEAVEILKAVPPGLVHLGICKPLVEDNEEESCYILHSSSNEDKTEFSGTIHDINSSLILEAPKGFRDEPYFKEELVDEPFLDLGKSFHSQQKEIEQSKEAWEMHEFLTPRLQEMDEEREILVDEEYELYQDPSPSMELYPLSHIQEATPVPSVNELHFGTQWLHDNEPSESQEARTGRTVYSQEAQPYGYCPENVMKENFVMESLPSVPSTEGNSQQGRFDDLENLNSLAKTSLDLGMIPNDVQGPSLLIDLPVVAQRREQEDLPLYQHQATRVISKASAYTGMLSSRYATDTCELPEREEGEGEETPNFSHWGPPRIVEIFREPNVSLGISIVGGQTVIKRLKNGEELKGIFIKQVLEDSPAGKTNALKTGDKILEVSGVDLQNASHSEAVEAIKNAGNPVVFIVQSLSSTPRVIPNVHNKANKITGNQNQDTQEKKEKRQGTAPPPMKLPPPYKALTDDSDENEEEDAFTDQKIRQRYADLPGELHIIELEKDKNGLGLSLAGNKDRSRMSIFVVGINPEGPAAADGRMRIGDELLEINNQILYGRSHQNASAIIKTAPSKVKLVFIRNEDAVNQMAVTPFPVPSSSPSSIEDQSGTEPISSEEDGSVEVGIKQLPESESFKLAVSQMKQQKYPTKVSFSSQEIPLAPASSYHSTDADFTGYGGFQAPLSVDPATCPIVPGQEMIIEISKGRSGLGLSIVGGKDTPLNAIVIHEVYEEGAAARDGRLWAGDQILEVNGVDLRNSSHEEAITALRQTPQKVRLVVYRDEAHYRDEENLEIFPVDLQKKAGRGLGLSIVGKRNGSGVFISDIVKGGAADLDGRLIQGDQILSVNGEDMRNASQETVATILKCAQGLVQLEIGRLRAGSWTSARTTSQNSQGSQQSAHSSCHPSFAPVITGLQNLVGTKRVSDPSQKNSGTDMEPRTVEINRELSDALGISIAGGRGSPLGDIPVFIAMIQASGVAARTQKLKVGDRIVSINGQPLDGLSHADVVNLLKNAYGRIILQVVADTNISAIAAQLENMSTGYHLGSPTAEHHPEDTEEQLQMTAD
Chain of MAGI2-5 (Q86UL8 whole entry): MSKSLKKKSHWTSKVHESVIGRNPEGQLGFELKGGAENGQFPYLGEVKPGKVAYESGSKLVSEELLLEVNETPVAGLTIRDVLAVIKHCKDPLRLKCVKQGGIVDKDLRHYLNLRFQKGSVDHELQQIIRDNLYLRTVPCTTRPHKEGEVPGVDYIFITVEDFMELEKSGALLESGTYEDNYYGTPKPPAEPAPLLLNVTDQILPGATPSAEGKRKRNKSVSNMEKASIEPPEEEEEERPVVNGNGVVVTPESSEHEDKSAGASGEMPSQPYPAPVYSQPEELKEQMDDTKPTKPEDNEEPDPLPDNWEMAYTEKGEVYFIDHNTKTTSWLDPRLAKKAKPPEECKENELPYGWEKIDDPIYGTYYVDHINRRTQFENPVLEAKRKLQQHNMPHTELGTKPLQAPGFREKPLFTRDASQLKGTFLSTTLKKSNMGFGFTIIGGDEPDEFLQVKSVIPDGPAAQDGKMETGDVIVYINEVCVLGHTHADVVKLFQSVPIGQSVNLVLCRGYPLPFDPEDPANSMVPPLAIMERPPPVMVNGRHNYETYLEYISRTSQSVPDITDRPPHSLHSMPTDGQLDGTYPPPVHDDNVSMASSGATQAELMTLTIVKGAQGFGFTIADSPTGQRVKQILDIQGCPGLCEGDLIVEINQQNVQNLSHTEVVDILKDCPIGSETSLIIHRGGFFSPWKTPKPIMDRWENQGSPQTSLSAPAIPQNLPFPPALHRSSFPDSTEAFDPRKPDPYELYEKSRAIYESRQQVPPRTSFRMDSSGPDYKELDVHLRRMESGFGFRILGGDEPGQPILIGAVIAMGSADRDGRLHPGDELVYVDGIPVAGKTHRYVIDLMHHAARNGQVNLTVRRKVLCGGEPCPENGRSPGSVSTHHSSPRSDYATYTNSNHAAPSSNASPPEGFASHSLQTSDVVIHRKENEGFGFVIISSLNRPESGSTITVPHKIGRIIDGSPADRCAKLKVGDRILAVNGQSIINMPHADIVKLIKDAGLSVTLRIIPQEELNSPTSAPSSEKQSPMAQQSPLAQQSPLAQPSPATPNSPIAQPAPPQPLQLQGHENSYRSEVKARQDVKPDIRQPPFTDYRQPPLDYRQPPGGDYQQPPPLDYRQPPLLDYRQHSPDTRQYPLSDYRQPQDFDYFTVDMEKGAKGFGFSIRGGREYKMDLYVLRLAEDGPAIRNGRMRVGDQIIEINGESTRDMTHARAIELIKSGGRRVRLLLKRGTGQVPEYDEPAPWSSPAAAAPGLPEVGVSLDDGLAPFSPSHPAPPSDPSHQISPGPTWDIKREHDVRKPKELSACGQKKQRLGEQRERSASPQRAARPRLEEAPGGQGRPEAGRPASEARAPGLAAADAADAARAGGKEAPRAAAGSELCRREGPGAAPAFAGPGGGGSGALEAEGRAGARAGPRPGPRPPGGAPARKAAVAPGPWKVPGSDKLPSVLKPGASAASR

`CC[C@H](C)[C@H](NC(=O)[C@H](CCC(N)=O)NC(=O)[C@@H](NC(=O)[C@H](Cc1c[nH]cn1)NC(=O)[C@H](CCC(N)=O)NC(=O)[C@H](CC(=O)O)NC(=O)[C@H](CCC(=O)O)NC(=O)[C@H](CC(=O)O)NC(=O)CCC(=O)NCCCOCCOCCOCCCNC(=O)CCCC[C@@H]1SC[C@@H]2NC(=O)N[C@@H]21)[C@@H](C)O)C(=O)N[C@H](C(=O)N[C@@H](CCCNC(=N)N)C(=O)N[C@H](C(=O)O)C(C)C)[C@@H](C)O` [PTEN_KR] ({X1-Suc}-DEDQHTQITRV-OH) showed a BI (INADL-6) of 0.066, a LogKD (INADL-6) of 3.655 and a BI (GIPC1-1) of 0.02. The LogKD (GIPC1-1) was 3.655, the BI (GORASP1-1) was 0.122 and the BI (FRMPD1-1) was -0.047. It also gave a LogKD (FRMPD1-1) of 3.655, a BI (APBA2-2) of -0.002 and a LogKD (APBA2-2) of 3.655. It also gave a BI (MAGI2-5) of -0.074, a LogKD (MAGI2-5) of 3.655 and a BI (DLG3-3) of 0.067. It also gave a LogKD (DLG3-3) of 3.655, a BI (FRMPD2-2) of 0.295 and a Kd (FRMPD2-2) of 56.9 µM. It also gave a BI (MAGI3-3) of -0.043 and a LogKD (MAGI3-3) of 3.655.
With `CC[C@H](C)[C@H](NC(=O)[C@H](CCC(N)=O)NC(=O)[C@@H](NC(=O)[C@H](Cc1c[nH]cn1)NC(=O)[C@H](CCC(N)=O)NC(=O)[C@H](CC(=O)O)NC(=O)[C@H](CCC(=O)O)NC(=O)[C@H](CC(=O)O)NC(=O)[C@H](Cc1ccccc1)NC(=O)[C@@H]1CCCN1C(=O)CCC(=O)NCCCOCCOCCOCCCNC(=O)CCCC[C@@H]1SC[C@@H]2NC(=O)N[C@@H]21)[C@@H](C)O)C(=O)N[C@H](C(=O)N[C@@H](CCCCN)C(=O)N[C@H](C(=O)O)C(C)C)[C@@H](C)O` [PTEN_13] ({X1-Suc}-PFDEDQHTQITKV-OH) the BI (INADL-6) was 0.044, the LogKD (INADL-6) was 3.826 and the BI (GIPC1-1) was -0.02. It also gave a BI (GORASP1-1) of 0.076, a LogKD (GORASP1-1) of 3.826 and a BI (FRMPD1-1) of 0.081. It also gave a BI (APBA2-2) of 0.041, a BI (MAGI2-5) of 0.046 and a LogKD (MAGI2-5) of 3.826. The BI (DLG3-3) was -0.054, the BI (FRMPD2-2) was 0.254 and the Kd (FRMPD2-2) was 46.9 µM. It also gave a BI (MAGI3-3) of -0.03.
With `CC[C@H](C)[C@H](NC(=O)[C@H](CCC(N)=O)NC(=O)[C@@H](NC(=O)[C@H](Cc1c[nH]cn1)NC(=O)[C@H](CCC(N)=O)NC(=O)[C@H](CC(=O)O)NC(=O)[C@H](CCC(=O)O)NC(=O)[C@H](CC(=O)O)NC(=O)CCC(=O)NCCCOCCOCCOCCCNC(=O)CCCC[C@@H]1SC[C@@H]2NC(=O)N[C@@H]21)[C@@H](C)O)C(=O)N[C@H](C(=O)N[C@@H](CCCCNC(C)=O)C(=O)N[C@H](C(=O)O)C(C)C)[C@@H](C)O` [PTEN_Ac] the BI (INADL-6) was 0.316, the Kd (INADL-6) was 57.9 µM and the BI (GIPC1-1) was 0.035. For the same molecule, the LogKD (GIPC1-1) was 3.605, the BI (GORASP1-1) was 0.151 and the BI (FRMPD1-1) was -0.03. The LogKD (FRMPD1-1) was 3.605, the BI (APBA2-2) was -0.03 and the LogKD (APBA2-2) was 3.605. It also gave a BI (MAGI2-5) of 0.148, a BI (DLG3-3) of -0.04 and a LogKD (DLG3-3) of 3.605. The BI (FRMPD2-2) was 0.574, the Kd (FRMPD2-2) was 19.1 µM and the BI (MAGI3-3) was -0.079. For the same molecule, the LogKD (MAGI3-3) was 3.605.
`CC[C@H](C)[C@H](NC(=O)[C@H](CCC(N)=O)NC(=O)[C@@H](NC(=O)[C@H](Cc1c[nH]cn1)NC(=O)[C@H](CCC(N)=O)NC(=O)[C@H](CC(=O)O)NC(=O)[C@H](CCC(=O)O)NC(=O)[C@H](CC(=O)O)NC(=O)CCC(=O)NCCCOCCOCCOCCCNC(=O)CCCC[C@@H]1SC[C@@H]2NC(=O)N[C@@H]21)[C@@H](C)O)C(=O)N[C@H](C(=O)N[C@@H](CCCCN)C(=O)N[C@H](C(=O)O)C(C)C)[C@@H](C)O` [PTEN_11] gave a BI (INADL-6) of 0.077, a LogKD (INADL-6) of 3.519 and a BI (GIPC1-1) of 0.042. The LogKD (GIPC1-1) was 3.519, the BI (GORASP1-1) was 0.037 and the LogKD (GORASP1-1) was 3.519. For the same molecule, the BI (FRMPD1-1) was 0.017, the LogKD (FRMPD1-1) was 3.519 and the BI (APBA2-2) was -0.01. The LogKD (APBA2-2) was 3.519, the BI (MAGI2-5) was 0.214 and the Kd (MAGI2-5) was 122 µM. It also gave a BI (DLG3-3) of -0.011, a LogKD (DLG3-3) of 3.519 and a BI (FRMPD2-2) of 0.291. For the same molecule, the Kd (FRMPD2-2) was 80 µM, the BI (MAGI3-3) was -0.099 and the LogKD (MAGI3-3) was 3.519.

Source: paper PMC7774954, “Interactomic affinity profiling by holdup assay: Acetylation and distal residues impact the PDZome-binding specificity of PTEN phosphatase” (PLoS ONE, 2020)
